In PubChem BioAssay AID2060889 (Molecular Pharmacology Branch, DTP, NCI, 2025):
One block for each molecule: values may come before it.

System: LG0567-F671-PDC complex spheroids viability
Assay: Anticancer human tumor LG0567-F671-PDC patient-derived lung adenocarcinoma cell line growth inhibition [RAS]
Conditions: for viability, T/C: stronger effect = lower value
In short: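 Multi-cell-type spheroids: tumor cells plus HUVEC endothelial cells and mesenchymal stem cells. RAS-pathway inhibitors were combined with targeted agents, each dosed in half-log steps down from clinical Cmax, or from 10 microM when Cmax was unknown.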

[1] = curve of first compound, second compound 0.000949 µM
[2] = curve of first compound, second compound 0.003 µM
[3] = curve of first compound, second compound 0.00949 µM
[4] = curve of first compound, second compound 0.03 µM
[5] = curve of first compound, second compound 0.0949 µM
[6] = curve of first compound, second compound 0.3 µM
[7] = second compound 0.000949 µM, first compound 0.00316 µM
[8] = second compound 0.000949 µM, first compound 0.01 µM
[9] = second compound 0.000949 µM, first compound 0.0316 µM
[10] = second compound 0.000949 µM, first compound 0.1 µM
[11] = second compound 0.000949 µM, first compound 0.316 µM
[12] = second compound 0.000949 µM, first compound 1 µM
[13] = second compound 0.003 µM, first compound 0.00316 µM
[14] = second compound 0.003 µM, first compound 0.01 µM
[15] = second compound 0.003 µM, first compound 0.0316 µM
[16] = second compound 0.003 µM, first compound 0.1 µM
[17] = second compound 0.003 µM, first compound 0.316 µM
[18] = second compound 0.003 µM, first compound 1 µM
[19] = second compound 0.00949 µM, first compound 0.00316 µM
[20] = second compound 0.00949 µM, first compound 0.01 µM
[21] = second compound 0.00949 µM, first compound 0.0316 µM
[22] = second compound 0.00949 µM, first compound 0.1 µM
[23] = second compound 0.00949 µM, first compound 0.316 µM
[24] = second compound 0.00949 µM, first compound 1 µM
[25] = second compound 0.03 µM, first compound 0.00316 µM
[26] = second compound 0.03 µM, first compound 0.01 µM
[27] = second compound 0.03 µM, first compound 0.0316 µM
[28] = second compound 0.03 µM, first compound 0.1 µM
[29] = second compound 0.03 µM, first compound 0.316 µM
[30] = second compound 0.03 µM, first compound 1 µM
[31] = second compound 0.0949 µM, first compound 0.00316 µM
[32] = second compound 0.0949 µM, first compound 0.01 µM
[33] = second compound 0.0949 µM, first compound 0.0316 µM
[34] = second compound 0.0949 µM, first compound 0.1 µM
[35] = second compound 0.0949 µM, first compound 0.316 µM
[36] = second compound 0.0949 µM, first compound 1 µM
[37] = second compound 0.3 µM, first compound 0.00316 µM
[38] = second compound 0.3 µM, first compound 0.01 µM
[39] = second compound 0.3 µM, first compound 0.0316 µM
[40] = second compound 0.3 µM, first compound 0.1 µM
[41] = second compound 0.3 µM, first compound 0.316 µM
[42] = second compound 0.3 µM, first compound 1 µM
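Note: spheroids exposed to compound for seven days before readout.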
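Throughout, for IC50: luminescence signal used as a proxy for viable cells.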

SMILES: CCN1CCN(Cc2ccc(Nc3ncc(F)c(-c4cc(F)c5nc(C)n(C(C)C)c5c4)n3)nc2)CC1 + CCn1c(-c2cccnc2C(C)OC)c2c3cc(ccc31)N1CCOC(CC(NC(=O)C(C(C)C)N(C)C(=O)C3(F)CCN(C(=O)C#CC(C)(C)N(C)C)CC3)C(=O)N3CCCC(N3)C(=O)OCC(C)(C)C2)C1
- IC50 [1]: < 3.16 nM
- IC50 [2]: < 3.16 nM
- IC50 [3]: < 3.16 nM
- IC50 [4]: < 3.16 nM
- IC50 [5]: < 3.16 nM
- IC50 [6]: < 3.16 nM
- viability, T/C [7]: 15%
- viability, T/C [8]: 15.8%
- viability, T/C [9]: 14.2%
- viability, T/C [10]: 14.7%
- viability, T/C [11]: 18.1%
- viability, T/C [12]: 17.5%
- viability, T/C [13]: 14.2%
- viability, T/C [14]: 16.5%
- viability, T/C [15]: 13%
- viability, T/C [16]: 15.9%
- viability, T/C [17]: 18.7%
- viability, T/C [18]: 19.9%
- viability, T/C [19]: 15.2%
- viability, T/C [20]: 13.4%
- viability, T/C [21]: 14.1%
- viability, T/C [22]: 14.8%
- viability, T/C [23]: 16.5%
- viability, T/C [24]: 17.4%
- viability, T/C [25]: 13.1%
- viability, T/C [26]: 12.9%
- viability, T/C [27]: 13.7%
- viability, T/C [28]: 13.9%
- viability, T/C [29]: 16.8%
- viability, T/C [30]: 16.5%
- viability, T/C [31]: 16%
- viability, T/C [32]: 13.3%
- viability, T/C [33]: 11.8%
- viability, T/C [34]: 12.2%
- viability, T/C [35]: 15%
- viability, T/C [36]: 15.1%
- viability, T/C [37]: 10.5%
- viability, T/C [38]: 9.89%
- viability, T/C [39]: 10.4%
- viability, T/C [40]: 10.7%
- viability, T/C [41]: 13.8%
- viability, T/C [42]: 11.4%

SMILES: CC(C)n1nc(-c2ccc3oc(N)nc3c2)c2c(N)ncnc21
- viability, T/C (compound 0.000316 µM): 90.9% [middle of 4 runs]
- viability, T/C (compound 0.001 µM): 88.4% [middle of 4 runs]
- viability, T/C (compound 0.00316 µM): 86.1% [middle of 4 runs]
- viability, T/C (compound 0.01 µM): 75.3% [middle of 4 runs]
- viability, T/C (compound 0.0316 µM): 56.1% [middle of 4 runs]

SMILES: C=CC(=O)Nc1cc(Nc2nccc(-c3cn(C)c4ccccc34)n2)c(OC)cc1N(C)CCN(C)C
- viability, T/C (compound 0.01 µM): 92.5% [middle of 4 runs]
- viability, T/C (compound 0.0316 µM): 86% [middle of 4 runs]
- viability, T/C (compound 0.1 µM): 68.7% [middle of 4 runs]
- viability, T/C (compound 0.316 µM): 42.7% [middle of 4 runs]
- viability, T/C (compound 1 µM): 23.2% [middle of 4 runs]
- IC50 (curve of compound): 225 nM [middle of 4 runs]

Now from value to molecule, other results behind:

- IC50 [1]: < 3.16 nM
- IC50 [2]: < 3.16 nM
- IC50 [3]: < 3.16 nM
- IC50 [4]: < 3.16 nM
- IC50 [5]: < 3.16 nM
- IC50 [6]: < 3.16 nM
SMILES: CCN1CCN(Cc2ccc(Nc3ncc(F)c(-c4cc(F)c5nc(C)n(C(C)C)c5c4)n3)nc2)CC1 + CCn1c(-c2cc(N3CCN(C)CC3)cnc2C(C)OC)c2c3cc(ccc31)-c1csc(n1)CC(NC(=O)C1CC1C)C(=O)N1CCCC(N1)C(=O)OCC(C)(C)C2
- viability, T/C [7]: 27.4%
- viability, T/C [8]: 24.3%
- viability, T/C [9]: 23.6%
- viability, T/C [10]: 23.9%
- viability, T/C [11]: 27.4%
- viability, T/C [12]: 30.4%
- viability, T/C [13]: 11.5%
- viability, T/C [14]: 11.9%
- viability, T/C [15]: 10.8%
- viability, T/C [16]: 11.4%
- viability, T/C [17]: 14.7%
- viability, T/C [18]: 21.5%
- viability, T/C [19]: 6.37%
- viability, T/C [20]: 6.88%
- viability, T/C [21]: 6.24%
- viability, T/C [22]: 6.47%
- viability, T/C [23]: 7.63%
- viability, T/C [24]: 14.4%
- viability, T/C [25]: 4.36%
- viability, T/C [26]: 4.91%
- viability, T/C [27]: 4.15%
- viability, T/C [28]: 4.09%
- viability, T/C [29]: 5.04%
- viability, T/C [30]: 8.84%
- viability, T/C [31]: 3.5%
- viability, T/C [32]: 3.29%
- viability, T/C [33]: 2.92%
- viability, T/C [34]: 2.88%
- viability, T/C [35]: 3.8%
- viability, T/C [36]: 6%
- viability, T/C [37]: 3.07%
- viability, T/C [38]: 2.94%
- viability, T/C [39]: 2.53%
- viability, T/C [40]: 2.95%
- viability, T/C [41]: 3.25%
- viability, T/C [42]: 4.38%

- IC50 [1]: < 0.949 nM
- IC50 [2]: < 0.949 nM
- IC50 [3]: < 0.949 nM
- IC50 [4]: < 0.949 nM
- IC50 [5]: < 0.949 nM
- IC50 [6]: < 0.949 nM
SMILES: CC1(C)CCC(Nc2ncc(C(F)(F)F)c(-c3c[nH]c4c(P(C)(C)=O)c(C#N)ccc34)n2)CN1 (centres undefined) + CCn1c(-c2cccnc2C(C)OC)c2c3cc(ccc31)N1CCOC(CC(NC(=O)C(C(C)C)N(C)C(=O)C3(F)CCN(C(=O)C#CC(C)(C)N(C)C)CC3)C(=O)N3CCCC(N3)C(=O)OCC(C)(C)C2)C1
- viability, T/C (second compound 0.000949 µM, first compound 0.000949 µM): 12.7%
- viability, T/C (second compound 0.000949 µM, first compound 0.003 µM): 12.4%
- viability, T/C (second compound 0.000949 µM, first compound 0.00949 µM): 13.2%
- viability, T/C (second compound 0.000949 µM, first compound 0.03 µM): 13.5%
- viability, T/C (second compound 0.000949 µM, first compound 0.0949 µM): 14.6%
- viability, T/C (second compound 0.000949 µM, first compound 0.3 µM): 14.8%
- viability, T/C (second compound 0.003 µM, first compound 0.000949 µM): 12.1%
- viability, T/C (second compound 0.003 µM, first compound 0.003 µM): 13.2%
- viability, T/C (second compound 0.003 µM, first compound 0.00949 µM): 12.7%
- viability, T/C (second compound 0.003 µM, first compound 0.03 µM): 12.8%
- viability, T/C (second compound 0.003 µM, first compound 0.0949 µM): 15.4%
- viability, T/C (second compound 0.003 µM, first compound 0.3 µM): 14.4%
- viability, T/C (second compound 0.00949 µM, first compound 0.000949 µM): 10.9%
- viability, T/C (second compound 0.00949 µM, first compound 0.003 µM): 11.9%
- viability, T/C (second compound 0.00949 µM, first compound 0.00949 µM): 12.1%
- viability, T/C (second compound 0.00949 µM, first compound 0.03 µM): 13.2%
- viability, T/C (second compound 0.00949 µM, first compound 0.0949 µM): 14%
- viability, T/C (second compound 0.00949 µM, first compound 0.3 µM): 15.2%
- viability, T/C (second compound 0.03 µM, first compound 0.000949 µM): 10.8%
- viability, T/C (second compound 0.03 µM, first compound 0.003 µM): 12.1%
- viability, T/C (second compound 0.03 µM, first compound 0.00949 µM): 12.3%
- viability, T/C (second compound 0.03 µM, first compound 0.03 µM): 12.8%
- viability, T/C (second compound 0.03 µM, first compound 0.0949 µM): 13.3%
- viability, T/C (second compound 0.03 µM, first compound 0.3 µM): 13.2%
- viability, T/C (second compound 0.0949 µM, first compound 0.000949 µM): 10.3%
- viability, T/C (second compound 0.0949 µM, first compound 0.003 µM): 9.49%
- viability, T/C (second compound 0.0949 µM, first compound 0.00949 µM): 11.1%
- viability, T/C (second compound 0.0949 µM, first compound 0.03 µM): 10.3%
- viability, T/C (second compound 0.0949 µM, first compound 0.0949 µM): 11.1%
- viability, T/C (second compound 0.0949 µM, first compound 0.3 µM): 10.7%
- viability, T/C (second compound 0.3 µM, first compound 0.000949 µM): 7.95%
- viability, T/C (second compound 0.3 µM, first compound 0.003 µM): 7.87%
- viability, T/C (second compound 0.3 µM, first compound 0.00949 µM): 7.86%
- viability, T/C (second compound 0.3 µM, first compound 0.03 µM): 8.99%
- viability, T/C (second compound 0.3 µM, first compound 0.0949 µM): 9.92%
- viability, T/C (second compound 0.3 µM, first compound 0.3 µM): 10.7%

- IC50 (curve of compound): 17.3 nM [middle of 4 runs]
SMILES: O=C(c1ccc(F)c(F)c1Nc1ccc(I)cc1F)N1CC(O)([C@@H]2CCCCN2)C1
- viability, T/C (compound 0.00316 µM): 85.1% [middle of 4 runs]
- viability, T/C (compound 0.01 µM): 58.9% [middle of 4 runs]
- viability, T/C (compound 0.0316 µM): 39.8% [middle of 4 runs]
- viability, T/C (compound 0.1 µM): 24% [middle of 4 runs]
- viability, T/C (compound 0.316 µM): 11.1% [middle of 4 runs]
- viability, T/C (compound 1 µM): 3.21% [middle of 4 runs]
